Our source for the IC50 values is patent US9765018B2, “IDO inhibitors” (BRISTOL-MYERS SQUIBB COMPANY, priority 2013, dated 2017).

As usually defined, the pIC50 is −log10 of the IC50, conventionally taken in molar units.

Test [1] concerns the target Human IDO1 (Homo sapiens (Human), UniProt P14902). In words: IDO Kynurenine Assay with Human IDO1/HEK293 Cells. It counts as cell-based. The conditions noted are these: HEK293 cells with human IDO1; read-out: HEK human IDO-1 (IC50). Here is the method:
IDO Kynurenine Assay with Human IDO1/HEK293 Cells
Human IDO1/HEK293 cells were seeded at 10,000 cells per 50 uL per well with RPMI/phenol red free media contains 10% FBS in a 384-well black wall clear bottom tissue culture plate (Matrix Technologies LLC) 125 nL of certain concentration of compound was then added to each well using ECHO liquid handling systems. The cells were incubated for 20 hours in 37° C. incubator with 5% CO2.
The compound treatments were stopped by adding Trichloroacetic Acid (Sigma-Aldrich) to a final concentration at 0.2%. The cell plate was further incubated at 50° C. for 30 minute. The equal volume supernatant (20 uL) and 0.2% (w/v) Ehrlich reagent (4-dimethylaminobenzaldehyde, Sigma-Aldrich) in glacial acetic acid were mixed in a new clear bottom 384-well plate. This plate was then incubated at room temperature for 30 minute. The absorbance at 490 nm was measured on Envision plate reader.

The target in test [2] is T1, IDO (Homo sapiens (Human), UniProt P14902). As to the kind of experiment: Kynurenine assay in IFN-γ-stimulated Hela cells. It counts as cell-based. The conditions noted are these: 20 h, read-out: Hela Kyurenine (IC50). A digest of the protocol: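 Kynurenine in supernatant is read at 490 nm after Ehrlich reagent (10 min RT), following TCA stop and 30 min at 50° C hydrolysis. Before that, Hela cells in phenol red-free RPMI/10% FBS were co-treated 20 h at 37° C with 100 ng/mL IFN-γ and compound (30 μM top, 3-fold series to 1.5 nM).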
T1 sequence (P14902 whole entry): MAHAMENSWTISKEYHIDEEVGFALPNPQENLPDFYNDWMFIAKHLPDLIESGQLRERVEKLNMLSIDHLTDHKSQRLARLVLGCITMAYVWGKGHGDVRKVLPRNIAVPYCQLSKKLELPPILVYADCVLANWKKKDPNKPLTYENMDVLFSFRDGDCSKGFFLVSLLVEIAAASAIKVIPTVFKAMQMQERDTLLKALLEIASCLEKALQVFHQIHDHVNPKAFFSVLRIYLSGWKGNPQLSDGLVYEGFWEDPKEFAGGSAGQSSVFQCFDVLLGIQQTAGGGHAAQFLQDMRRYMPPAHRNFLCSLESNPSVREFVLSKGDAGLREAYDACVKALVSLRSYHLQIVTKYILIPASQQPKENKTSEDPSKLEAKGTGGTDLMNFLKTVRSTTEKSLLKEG

Test [3] addresses T1, IDO. As to the kind of experiment: LLE_IDO_ABS_DR (IDO assay, method not described).

pIC50: −log10 of the molar value.

Sequence of Human IDO1 (P14902 whole entry): as above

As to `C#CCOc1cccc(Oc2ccc(-c3ccc(OC)c(C(=O)O)c3)cc2NC(=O)Nc2ccccc2Cl)c1C` [Example 136, 3′-(3-(2-chlorophenyl)ureido)-4-methoxy-4′-(2-methyl-3-(prop-2-ynyloxy)phenoxy)biphenyl-3-carboxylic acid], the pIC50 in test [1] was 7.15; in test [2], 7.70; in test [3], 6.85.

With `COc1ccc(-c2ccc(Oc3cccc4c3CCCC4)c(NC(=O)Nc3ccccc3F)c2)cc1C(=O)O` [Example 152, 3′-(3-(2-fluorophenyl)ureido)-4-methoxy-4′-(5,6,7,8-tetrahydronaphthalen-1-yloxy)biphenyl-3-carboxylic acid], the pIC50 in test [1] was 6.35; in test [2] it was 7.30; in test [3] it was 6.54.

In the case of `COc1ccc(-c2ccc(Oc3ccccc3C(C)(C)C)c(NC(=O)Nc3ccccc3Cl)c2)cc1C(=O)O` [Example 42, 4′-(2-tert-butylphenoxy)-3′-(3-(2-chlorophenyl)ureido)-4-methoxybiphenyl-3-carboxylic acid], the pIC50 is 6.21 in test [1], 7.05 in test [2] and 6.47 in test [3].

In the case of `COc1ccc(-c2ccc(Oc3cccc(C)c3C)c(NC(=O)Nc3ccccc3Cl)c2)cc1C(=O)O` [Example 120, 3′-(3-(2-chlorophenyl)ureido)-4′-(2,3-dimethylphenoxy)-4-methoxybiphenyl-3-carboxylic acid], the results for the pIC50 in test [1], in test [2] and in test [3] were 6.59, 7.10 and 6.37, respectively.

`COc1ccc(-c2ccc(Oc3cccc4c3CCCC4)c(NC(=O)Nc3ccccc3)c2)cc1C(=O)O` [Example 151, 4-methoxy-3′-(3-phenylureido)-4′-(5,6,7,8-tetrahydronaphthalen-1-yloxy)biphenyl-3-carboxylic acid]: the pIC50 was 5.95 in test [1], 7.22 in test [2] and 6.52 in test [3].

On to `Cc1ccc(NC(=O)Nc2cc(-c3cccc(C(=O)O)c3)ccc2Oc2cccc(Cl)c2)cc1` [Example 245, 4′-(3-chlorophenoxy)-3′-(3-p-tolylureido) biphenyl-3-carboxylic acid], for which the pIC50 in test [1] is 5.18; in test [2], 6.60; in test [3] it was 5.65.

For `COc1ccc(-c2ccc(Oc3cccc(C)c3C)c(NC(=O)Nc3ccc(C)cc3)c2)cc1C(=O)O` [Example 123, 4′-(2,3-dimethylphenoxy)-4-methoxy-3′-(3-p-tolylureido)biphenyl-3-carboxylic acid], the pIC50 is 6.17 in test [1], 6.80 in test [2] and 6.14 in test [3].

Turning to `COc1ccc(-c2ccc(Oc3ccc4c(c3)CCCC4)c(NC(=O)Nc3ccc(C)cc3)c2)cc1C(=O)O` [Example 148, 4-methoxy-4′-(5,6,7,8-tetrahydronaphthalen-2-yloxy)-3′-(3-p-tolylureido)biphenyl-3-carboxylic acid], the results for the pIC50 in test [1], in test [2] and in test [3] were 5.62, 6.59 and 6.31, respectively.

Regarding `COc1ccc(-c2ccc(Oc3cccc4c3CCCC4)c(NC(=O)Nc3cccc(C)c3)c2)cc1C(=O)O` [Example 116, 4-methoxy-4′-(5,6,7,8-tetrahydronaphthalen-1-yloxy)-3′-(3-m-tolylureido)biphenyl-3-carboxylic acid], the figures for the pIC50 in test [1], in test [2] and in test [3] were 6.10, 7.00 and 6.11, respectively.

In the case of `C#CCOc1cccc(Oc2ccc(-c3ccc(OC)c(C(=O)O)c3)cc2NC(=O)Nc2ccc(C)cc2)c1C` [Example 141, 4-methoxy-4′-(2-methyl-3-(prop-2-ynyloxy)phenoxy)-3′-(3-p-tolylureido)biphenyl-3-carboxylic acid], the pIC50 is 6.38 in test [1], 7.30 in test [2] and 6.48 in test [3].

As to `Cc1cccc(NC(=O)Nc2cc(-c3cccc(C(=O)O)c3)ccc2Oc2ccccc2C(C)(C)C)c1` [Example 225, 4′-(2-tert-butylphenoxy)-3′-(3-m-tolylureido) biphenyl-3-carboxylic acid], the pIC50 in test [1] is 5.12; in test [2] it was 6.24; in test [3], 5.54.

Turning to `COc1ccc(-c2ccc(Oc3ccccc3C(C)(C)C)c(NC(=O)Nc3ccccc3C(F)(F)F)c2)cc1C(=O)O` [Example 46, 4′-(2-tert-butylphenoxy)-4-methoxy-3′-(3-(2-(trifluoromethyl)phenyl)ureido)biphenyl-3-carboxylic acid], the values for the pIC50 in test [1], in test [2] and in test [3] were 6.27, 7.30 and 6.49, respectively.

For `COc1ccc(-c2ccc(Oc3cccc(C)c3C)c(NC(=O)Nc3cccc(C)c3)c2)cc1C(=O)O` [Example 122, 4′-(2,3-dimethylphenoxy)-4-methoxy-3′-(3-m-tolylureido)biphenyl-3-carboxylic acid], the results for the pIC50 in test [1], in test [2] and in test [3] were 6.18, 7.10 and 6.60, respectively.

With `COc1ccc(-c2ccc(Oc3ccccc3C3CC3)c(NC(=O)Nc3ccc(C)cc3)c2)cc1C(=O)O` [Example 127, 4′-(2-cyclopropylphenoxy)-4-methoxy-3′-(3-p-tolylureido)biphenyl-3-carboxylic acid], the pIC50 in test [1] was 5.48; in test [2] it was 6.31; in test [3], 5.61.

As for `COc1ccc(-c2ccc(Oc3ccccc3C)c(NC(=O)Nc3ccc(C)cc3)c2)cc1C(=O)O` [Example 73, 4-methoxy-4′-(o-tolyloxy)-3′-(3-p-tolylureido)biphenyl-3-carboxylic acid], the pIC50 was 5.53 in test [1], 6.08 in test [2] and 5.80 in test [3].

Regarding `COc1ccc(-c2ccc(Oc3cccc4c3CCC4)c(NC(=O)Nc3ccccc3Cl)c2)cc1C(=O)O` [Example 142, 3′-(3-(2-chlorophenyl)ureido)-4′-(2,3-dihydro-1H-inden-4-yloxy)-4-methoxybiphenyl-3-carboxylic acid], the pIC50 in test [1] was 6.42; in test [2] it was 7.40; in test [3], 6.80.

In the case of `Cc1ccc(NC(=O)Nc2cc(-c3ccccc3C(=O)O)ccc2Oc2ccccc2C(C)(C)C)cc1` [Example 2, 4′-(2-tert-Butylphenoxy)-3′-(3-p-tolylureido)biphenyl-2-carboxylic acid], the pIC50 was 6.25 in test [1], 7.22 in test [2] and 7.15 in test [3].

As to `COc1ccc(-c2ccc(Oc3cccc4ccccc34)c(NC(=O)Nc3ccccc3C)c2)cc1C(=O)O` [Example 129, 4-methoxy-4′-(naphthalen-1-yloxy)-3′-(3-o-tolylureido)biphenyl-3-carboxylic acid], the negative-log IC50 (pIC50) in test [1] is 6.54; in test [2], 7.15; in test [3] it was 6.52.

Regarding `COc1ccc(-c2ccc(Oc3cccc(C(C)(C)C)c3)c(NC(=O)Nc3ccc(C)cc3)c2)cc1C(=O)O` [Example 113, 4′-(3-tert-butylphenoxy)-4-methoxy-3′-(3-p-tolylureido)biphenyl-3-carboxylic acid], the pIC50 in test [1] was 5.78; in test [2] it was 6.16; in test [3], 6.06.

`Cc1ccccc1NC(=O)Nc1cc(-c2cc(F)cc(C(=O)O)c2)ccc1Oc1ccccc1C(C)(C)C` [Example 254, 4′-(2-tert-butylphenoxy)-5-fluoro-3′-(3-o-tolylureido) biphenyl-3-carboxylic acid]: the negative-log IC50 (pIC50) in test [1] is 5.79; in test [2], 6.46; in test [3], 5.94.

In the case of `COc1ccc(-c2ccc(Oc3cccc4ccccc34)c(NC(=O)Nc3ccc(C)cc3)c2)cc1C(=O)O` [Example 131, 4-methoxy-4′-(naphthalen-1-yloxy)-3′-(3-p-tolylureido)biphenyl-3-carboxylic acid], the pIC50 in test [1] is 6.11; in test [2], 6.80; in test [3], 6.11.

Take `COc1ccc(-c2ccc(Oc3cccc4c3CCC4)c(NC(=O)Nc3ccccc3C)c2)cc1C(=O)O` [Example 143, 4′-(2,3-dihydro-1H-inden-4-yloxy)-4-methoxy-3′-(3-o-tolylureido)biphenyl-3-carboxylic acid]: the pIC50 in test [1] is 6.28; in test [2] it was 7.30; in test [3] it was 6.70.

As for `COc1ccc(-c2ccc(Oc3ccccc3C(C)C)c(NC(=O)Nc3ccc(C)cc3)c2)cc1C(=O)O` [Example 63, 4′-(2-isopropylphenoxy)-4-methoxy-3′-(3-p-tolylureido)biphenyl-3-carboxylic acid], the pIC50 in test [1] is 5.80; in test [2], 6.41; in test [3], 5.79.

For the compound `COc1ccc(-c2ccc(Oc3cccc4c3CCCC4)c(NC(=O)Nc3ccccc3C)c2)cc1C(=O)O` [Example 115, 4-methoxy-4′-(5,6,7,8-tetrahydronaphthalen-1-yloxy)-3′-(3-o-tolylureido)biphenyl-3-carboxylic acid], the pIC50 in test [1] is 6.62; in test [2], 7.30; in test [3], 6.70.
